Data as given in patent US20240246942A1, “KINASE INHIBITORS FOR THE TREATMENT OF NEURODEGENERATIVE DISEASES” (priority 2020, published 2024).

Columns and labels:
Assay in all cases: biochemical
[1] = target: T1, panel of 374 wild-type kinases (Homo sapiens, UniProt O15530); details: read-out: % Enzyme Activity (relative to DMSO controls), kinase PDK1/PDPK1
T1 construct: purchased Reaction Biology Corporation
T1 sequence (O15530 1-556): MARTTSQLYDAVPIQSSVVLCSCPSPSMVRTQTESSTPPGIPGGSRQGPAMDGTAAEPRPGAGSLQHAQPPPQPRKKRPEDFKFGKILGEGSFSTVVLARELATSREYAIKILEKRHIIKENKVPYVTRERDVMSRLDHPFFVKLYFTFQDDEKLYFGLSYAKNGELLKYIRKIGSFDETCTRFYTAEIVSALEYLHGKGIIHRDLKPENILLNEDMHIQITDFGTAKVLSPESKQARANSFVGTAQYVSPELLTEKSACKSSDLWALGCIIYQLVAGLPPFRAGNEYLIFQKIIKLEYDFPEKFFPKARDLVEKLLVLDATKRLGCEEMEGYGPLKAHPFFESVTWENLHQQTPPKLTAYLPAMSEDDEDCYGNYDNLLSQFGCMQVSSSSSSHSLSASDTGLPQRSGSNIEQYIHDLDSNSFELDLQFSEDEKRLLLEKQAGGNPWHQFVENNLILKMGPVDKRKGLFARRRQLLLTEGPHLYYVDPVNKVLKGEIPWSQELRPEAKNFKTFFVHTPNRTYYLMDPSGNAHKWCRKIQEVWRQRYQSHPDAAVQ

[2] = target: T2, panel of 374 wild-type kinases (Homo sapiens, UniProt P09619); details: read-out: % Enzyme Activity (relative to DMSO controls), kinase PDGFRb
T2 construct: purchased Reaction Biology Corporation

[3] = target: T3, panel of 374 wild-type kinases (Homo sapiens, UniProt P19784); details: CK2a2, read-out: % Enzyme Activity (relative to DMSO controls)
T3 construct: purchased Reaction Biology Corporation

[4] = target: T4, panel of 374 wild-type kinases (Homo sapiens, UniProt P51957); details: read-out: % Enzyme Activity (relative to DMSO controls), NEK4
T4 construct: purchased Reaction Biology Corporation

[5] = target: T5, panel of 374 wild-type kinases (Homo sapiens, UniProt P53350); details: read-out: % Enzyme Activity (relative to DMSO controls), kinase PLK1
T5 construct: purchased Reaction Biology Corporation

[6] = target: T6, panel of 374 wild-type kinases (Homo sapiens, UniProt Q08345); details: read-out: % Enzyme Activity (relative to DMSO controls), DDR1
T6 construct: purchased Reaction Biology Corporation

[7] = target: T7, panel of 374 wild-type kinases (Homo sapiens, UniProt Q15746); details: read-out: % Enzyme Activity (relative to DMSO controls), MLCK/MYLK
T7 construct: purchased Reaction Biology Corporation

[8] = target: T8, panel of 374 wild-type kinases (Homo sapiens, UniProt Q86YV6); details: read-out: % Enzyme Activity (relative to DMSO controls), MYLK4
T8 construct: purchased Reaction Biology Corporation
T8 sequence (Q86YV6 1-388): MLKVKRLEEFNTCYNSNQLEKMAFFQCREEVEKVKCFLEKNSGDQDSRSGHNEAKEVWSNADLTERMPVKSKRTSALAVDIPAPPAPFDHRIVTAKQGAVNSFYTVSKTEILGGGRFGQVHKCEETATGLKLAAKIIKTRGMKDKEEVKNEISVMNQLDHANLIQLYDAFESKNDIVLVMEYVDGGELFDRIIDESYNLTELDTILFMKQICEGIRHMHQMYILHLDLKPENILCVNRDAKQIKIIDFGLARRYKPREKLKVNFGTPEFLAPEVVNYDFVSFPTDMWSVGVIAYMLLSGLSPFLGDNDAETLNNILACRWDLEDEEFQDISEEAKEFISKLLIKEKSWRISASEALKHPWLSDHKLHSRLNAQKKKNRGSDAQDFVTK

[9] = target: T9, panel of 374 wild-type kinases (Homo sapiens, UniProt Q9Y2U5); details: read-out: % Enzyme Activity (relative to DMSO controls), MEKK2
T9 construct: purchased Reaction Biology Corporation
T9 sequence (Q9Y2U5 1-619): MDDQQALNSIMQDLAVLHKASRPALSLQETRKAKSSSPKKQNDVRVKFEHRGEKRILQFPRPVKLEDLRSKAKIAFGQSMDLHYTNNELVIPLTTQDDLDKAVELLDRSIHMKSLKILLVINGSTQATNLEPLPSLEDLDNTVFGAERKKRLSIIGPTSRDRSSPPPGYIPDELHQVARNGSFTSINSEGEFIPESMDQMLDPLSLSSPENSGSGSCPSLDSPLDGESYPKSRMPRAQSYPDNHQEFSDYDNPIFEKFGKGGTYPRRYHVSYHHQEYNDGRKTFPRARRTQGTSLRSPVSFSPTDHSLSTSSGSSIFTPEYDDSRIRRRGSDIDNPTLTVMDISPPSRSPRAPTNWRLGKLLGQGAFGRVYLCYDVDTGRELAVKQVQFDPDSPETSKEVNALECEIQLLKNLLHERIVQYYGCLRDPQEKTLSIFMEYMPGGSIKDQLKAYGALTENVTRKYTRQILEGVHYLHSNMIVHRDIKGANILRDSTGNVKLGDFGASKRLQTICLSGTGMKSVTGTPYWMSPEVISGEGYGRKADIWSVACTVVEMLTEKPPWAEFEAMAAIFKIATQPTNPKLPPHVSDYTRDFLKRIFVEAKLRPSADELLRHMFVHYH

[10] = target: T10, panel of 374 wild-type kinases (Homo sapiens, UniProt Q9Y6M4); details: read-out: % Enzyme Activity (relative to DMSO controls), CK1g3
T10 construct: purchased Reaction Biology Corporation
T10 sequence (Q9Y6M4 whole entry): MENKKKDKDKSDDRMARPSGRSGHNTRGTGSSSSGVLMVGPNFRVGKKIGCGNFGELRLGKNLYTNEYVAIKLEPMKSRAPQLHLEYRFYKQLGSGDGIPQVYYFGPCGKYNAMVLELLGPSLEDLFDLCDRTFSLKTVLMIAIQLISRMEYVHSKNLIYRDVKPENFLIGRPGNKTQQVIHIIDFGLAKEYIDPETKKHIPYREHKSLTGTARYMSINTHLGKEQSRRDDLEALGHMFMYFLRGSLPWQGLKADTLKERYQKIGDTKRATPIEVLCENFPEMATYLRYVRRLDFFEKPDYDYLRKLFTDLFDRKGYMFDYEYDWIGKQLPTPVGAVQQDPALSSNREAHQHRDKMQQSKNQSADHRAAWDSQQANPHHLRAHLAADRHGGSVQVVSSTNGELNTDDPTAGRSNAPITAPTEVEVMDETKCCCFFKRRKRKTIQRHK

T2 sequence (P09619 33-1106): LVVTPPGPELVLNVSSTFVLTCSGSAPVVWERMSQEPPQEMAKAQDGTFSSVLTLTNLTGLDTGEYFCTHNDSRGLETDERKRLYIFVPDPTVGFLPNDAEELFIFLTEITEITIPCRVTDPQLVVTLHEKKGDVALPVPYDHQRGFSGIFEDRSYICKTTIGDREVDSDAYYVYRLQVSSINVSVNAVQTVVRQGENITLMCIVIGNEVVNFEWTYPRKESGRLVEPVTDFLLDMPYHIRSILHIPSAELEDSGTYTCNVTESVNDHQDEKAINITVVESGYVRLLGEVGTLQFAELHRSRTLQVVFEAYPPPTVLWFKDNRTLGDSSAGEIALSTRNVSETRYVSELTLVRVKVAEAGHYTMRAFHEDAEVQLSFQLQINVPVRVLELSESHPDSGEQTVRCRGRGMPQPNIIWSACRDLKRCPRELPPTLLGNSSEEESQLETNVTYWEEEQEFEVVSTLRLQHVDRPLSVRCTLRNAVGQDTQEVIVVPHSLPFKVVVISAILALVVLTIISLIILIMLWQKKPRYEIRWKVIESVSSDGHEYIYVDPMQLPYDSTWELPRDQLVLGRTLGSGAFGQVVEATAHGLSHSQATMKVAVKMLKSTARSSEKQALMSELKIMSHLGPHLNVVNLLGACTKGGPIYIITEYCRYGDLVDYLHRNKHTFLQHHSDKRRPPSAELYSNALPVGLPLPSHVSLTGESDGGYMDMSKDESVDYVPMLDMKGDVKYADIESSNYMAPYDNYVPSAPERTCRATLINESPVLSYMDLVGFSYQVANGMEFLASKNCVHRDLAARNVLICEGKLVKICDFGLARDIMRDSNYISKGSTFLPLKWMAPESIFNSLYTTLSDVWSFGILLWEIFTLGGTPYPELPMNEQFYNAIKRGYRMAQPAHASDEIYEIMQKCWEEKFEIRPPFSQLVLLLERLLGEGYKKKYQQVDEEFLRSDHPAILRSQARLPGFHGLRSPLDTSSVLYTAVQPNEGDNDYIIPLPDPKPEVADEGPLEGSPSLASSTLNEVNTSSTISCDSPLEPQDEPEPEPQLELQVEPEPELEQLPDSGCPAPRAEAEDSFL
T3 sequence (P19784 whole entry): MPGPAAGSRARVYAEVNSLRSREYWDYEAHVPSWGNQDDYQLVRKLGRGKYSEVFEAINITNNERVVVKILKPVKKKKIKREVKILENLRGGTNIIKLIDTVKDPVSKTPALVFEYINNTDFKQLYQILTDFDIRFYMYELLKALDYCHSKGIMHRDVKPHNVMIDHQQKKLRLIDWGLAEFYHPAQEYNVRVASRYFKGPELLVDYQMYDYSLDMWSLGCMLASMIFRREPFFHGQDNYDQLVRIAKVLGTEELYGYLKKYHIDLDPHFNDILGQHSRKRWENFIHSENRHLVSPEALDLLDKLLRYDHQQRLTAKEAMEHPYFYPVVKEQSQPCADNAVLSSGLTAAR
T7 sequence (Q15746 whole entry): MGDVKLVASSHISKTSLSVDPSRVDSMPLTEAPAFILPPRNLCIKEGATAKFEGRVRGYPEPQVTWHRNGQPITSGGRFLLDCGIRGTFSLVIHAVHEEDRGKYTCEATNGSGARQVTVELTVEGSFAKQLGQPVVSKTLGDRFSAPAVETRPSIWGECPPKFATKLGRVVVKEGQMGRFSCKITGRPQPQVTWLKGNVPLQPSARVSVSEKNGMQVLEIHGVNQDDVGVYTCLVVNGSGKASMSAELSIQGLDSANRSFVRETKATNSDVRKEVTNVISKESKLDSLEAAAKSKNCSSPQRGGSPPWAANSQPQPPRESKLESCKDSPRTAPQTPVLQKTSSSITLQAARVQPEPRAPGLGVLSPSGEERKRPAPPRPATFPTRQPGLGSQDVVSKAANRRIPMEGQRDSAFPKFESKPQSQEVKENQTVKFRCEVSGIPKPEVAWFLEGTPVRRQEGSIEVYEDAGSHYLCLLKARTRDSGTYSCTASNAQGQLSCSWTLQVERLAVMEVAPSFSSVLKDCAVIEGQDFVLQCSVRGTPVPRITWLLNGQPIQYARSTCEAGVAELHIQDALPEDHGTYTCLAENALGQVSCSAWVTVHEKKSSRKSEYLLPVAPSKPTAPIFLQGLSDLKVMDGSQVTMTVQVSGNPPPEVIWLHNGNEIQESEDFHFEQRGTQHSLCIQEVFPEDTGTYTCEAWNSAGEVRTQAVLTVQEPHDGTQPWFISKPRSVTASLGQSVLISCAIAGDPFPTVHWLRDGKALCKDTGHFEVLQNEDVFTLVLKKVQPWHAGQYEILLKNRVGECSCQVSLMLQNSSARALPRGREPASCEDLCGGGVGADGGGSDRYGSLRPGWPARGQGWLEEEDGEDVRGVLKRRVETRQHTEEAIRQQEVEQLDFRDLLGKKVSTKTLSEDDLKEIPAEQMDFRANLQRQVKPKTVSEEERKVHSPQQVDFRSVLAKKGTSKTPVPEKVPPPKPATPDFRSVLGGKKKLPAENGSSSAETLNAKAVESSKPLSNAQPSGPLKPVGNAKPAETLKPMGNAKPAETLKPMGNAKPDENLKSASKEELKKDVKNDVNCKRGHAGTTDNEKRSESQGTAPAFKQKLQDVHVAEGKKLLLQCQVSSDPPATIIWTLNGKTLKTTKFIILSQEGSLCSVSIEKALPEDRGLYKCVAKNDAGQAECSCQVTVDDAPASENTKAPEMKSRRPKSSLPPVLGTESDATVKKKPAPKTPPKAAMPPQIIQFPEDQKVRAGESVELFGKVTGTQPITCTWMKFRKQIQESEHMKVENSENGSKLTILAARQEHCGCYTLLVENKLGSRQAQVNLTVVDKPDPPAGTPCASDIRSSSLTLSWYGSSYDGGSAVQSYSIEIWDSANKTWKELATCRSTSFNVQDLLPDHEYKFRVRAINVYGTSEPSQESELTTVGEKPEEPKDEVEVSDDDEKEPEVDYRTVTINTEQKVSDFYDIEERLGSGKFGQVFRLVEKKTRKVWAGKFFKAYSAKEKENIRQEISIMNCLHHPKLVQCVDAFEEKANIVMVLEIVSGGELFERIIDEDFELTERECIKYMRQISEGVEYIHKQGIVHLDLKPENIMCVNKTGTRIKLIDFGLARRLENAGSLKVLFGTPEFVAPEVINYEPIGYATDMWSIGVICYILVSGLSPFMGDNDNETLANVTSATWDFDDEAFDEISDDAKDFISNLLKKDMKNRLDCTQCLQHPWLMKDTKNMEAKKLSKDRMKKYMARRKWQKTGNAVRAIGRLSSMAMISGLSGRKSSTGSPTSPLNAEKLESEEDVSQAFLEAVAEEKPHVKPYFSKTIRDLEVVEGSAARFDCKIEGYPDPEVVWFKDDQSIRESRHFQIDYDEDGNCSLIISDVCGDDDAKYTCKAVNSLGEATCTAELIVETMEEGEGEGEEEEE
T4 sequence (P51957 whole entry): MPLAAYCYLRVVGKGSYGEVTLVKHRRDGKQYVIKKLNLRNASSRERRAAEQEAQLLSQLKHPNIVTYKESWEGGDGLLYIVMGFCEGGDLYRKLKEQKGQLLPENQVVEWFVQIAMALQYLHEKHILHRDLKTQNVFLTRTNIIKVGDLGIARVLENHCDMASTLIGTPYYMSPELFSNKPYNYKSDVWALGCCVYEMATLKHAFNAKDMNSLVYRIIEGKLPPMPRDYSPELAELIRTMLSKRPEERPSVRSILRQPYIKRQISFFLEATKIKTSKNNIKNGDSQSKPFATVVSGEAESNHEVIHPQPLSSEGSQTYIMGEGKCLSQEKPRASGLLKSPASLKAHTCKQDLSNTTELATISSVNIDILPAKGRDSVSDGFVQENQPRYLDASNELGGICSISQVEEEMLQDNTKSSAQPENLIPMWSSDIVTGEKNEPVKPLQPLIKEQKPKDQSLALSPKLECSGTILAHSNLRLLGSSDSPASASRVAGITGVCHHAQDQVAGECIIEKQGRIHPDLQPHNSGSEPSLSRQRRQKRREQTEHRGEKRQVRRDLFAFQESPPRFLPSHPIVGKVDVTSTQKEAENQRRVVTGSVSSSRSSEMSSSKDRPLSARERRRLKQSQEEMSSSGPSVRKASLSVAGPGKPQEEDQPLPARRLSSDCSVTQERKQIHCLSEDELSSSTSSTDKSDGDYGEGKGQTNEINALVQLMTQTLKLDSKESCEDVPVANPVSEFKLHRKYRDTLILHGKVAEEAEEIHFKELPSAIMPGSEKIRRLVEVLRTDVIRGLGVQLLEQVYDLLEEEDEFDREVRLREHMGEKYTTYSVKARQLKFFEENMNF

Compound | remaining activity at 5 µM [1] | remaining activity at 5 µM [2] | remaining activity at 5 µM [3] | remaining activity at 5 µM [4] | remaining activity at 5 µM [5] | remaining activity at 5 µM [6] | remaining activity at 5 µM [7] | remaining activity at 5 µM [8] | remaining activity at 5 µM [9] | remaining activity at 5 µM [10] | remaining activity at 10 µM ([1]; 10 uM) | remaining activity at 10 µM ([2]; 10 uM) | remaining activity at 10 µM ([3]; 10 uM) | remaining activity at 10 µM ([4]; 10 uM) | remaining activity at 10 µM ([5]; 10 uM) | remaining activity at 10 µM ([6]; 10 uM) | remaining activity at 10 µM ([7]; 10 uM) | remaining activity at 10 µM ([8]; 10 uM) | remaining activity at 10 µM ([9]; 10 uM) | remaining activity at 10 µM ([10]; 10 uM)
O=C(Nc1cnn(-c2csc(C(=O)NC3COC3)c2)c1)Nc1c(F)cccc1Cl [Compound 25, 4-(4-(3-(2-chloro-6-fluorophenyl)ureido)-1H-pyrazol-1-yl)-N-(oxetan-3-yl)thiophene-2-carboxamide] | 99.6% | 101% | 96.6% | 90.8% | 95.5% | 88.9% | 95.9% | 91.7% | 80.1% | 92.6% |  |  |  |  |  |  |  |  |  | 
O=C(Nc1cnn(-c2csc(C(=O)NC3COC3)c2)c1)Nc1ccccc1Cl [Compound 17, 4-(4-(3-(2-chlorophenyl)ureido)-1H-pyrazol-1-yl)-N-(oxetan-3-yl)thiophene-2-carboxamide] | 101% | 107% | 97.3% | 109% | 97% | 98.4% | 97.5% | 85.2% | 110% | 103% |  |  |  |  |  |  |  |  |  | 
Cc1sc(C(=O)NC2COC2)cc1-n1cc(NC(=O)Nc2c(F)cccc2Cl)cn1 [Compound 27, 4-(4-(3-(2-chloro-6-fluorophenyl)ureido)-1H-pyrazol-1-yl)-5-methyl-N-(oxetan-3-yl)thiophene-2-carboxamide] |  |  |  |  |  |  |  |  |  |  | 99.2% | 97.9% | 95.5% | 75.5% | 104% | 83.7% | 103% | 109% | 88.1% | 91.3%
